How the values were obtained:
late-stage melanoma = conditions: cited from earlier work
melanoma SkMel37 cells = assay: AlamarBlue cell viability with ZIP synergy scoring (SynergyFinder 3.0), SkMel37; format: cell-based, human; conditions: single agent; 5 days; FIG. 1
Method: A human melanoma cell line with mutations in BRAF (BRAF^V600E) (SkMel37) was used. Cells were plated in 96 well plates and treated on the following day with increasing concentrations of dabrafenib and Omomyc, alone or in combination. After 5 days of treatment, media was removed and AlamarBlue™ Cell Viability Reagent was added to each well, incubated for 3 hours until metabolized, and fluorescence was read with a microplate reader using an excitation between 530-560 and an emission at 590 nm.
Synergy was evaluated using SynergyFinder 3.0 web application derived from lanevsky A et al. Nucleic Acids Res. 2022; 50(W1):W739-W743.
Synergy scores can be interpreted as the average excess response due to drug interactions. Synergy scores close to 0 give limited confidence in synergy or antagonism. So, when the synergy scores are: less than −10, the interaction between two drugs is likely to be antagonistic. From −10 to 10, the interaction between two drugs is likely to be additive. Greater than 10, the interaction between two drugs is likely to be synergistic.

[1] = tested on: wild type and mutant BRAF metastatic melanoma; conditions: cited from earlier work
mutant BRAF = conditions: cited from earlier work

Row | Structure (SMILES) | tumors that develop resistance to the treatment (late-stage melanoma) | reduction of viability of the cells (melanoma SkMel37 cells) | off-target side-effects ([1]; human, in vivo) | clinical activity ([1]; monotherapy or in combination with dacarbazine) | selectivity for mutant BRAF (mutant BRAF)
1 | CCCS(=O)(=O)Nc1ccc(F)c(C(=O)c2c[nH]c3ncc(-c4ccc(Cl)cc4)cc23)c1F [vemurafenib] | 20% |  |  |  | 
2 | CC(C)(C)c1nc(-c2cccc(NS(=O)(=O)c3c(F)cccc3F)c2F)c(-c2ccnc(N)n2)s1 [dabrafenib] | 20% | significantly reduces the viability of the cells |  |  | 
3 | CNC(=O)c1cc(Oc2ccc(NC(=O)Nc3ccc(Cl)c(C(F)(F)F)c3)cc2)ccn1 [sorafenib] |  |  | intolerable off-target side-effects | failed to demonstrate any activity | unable to selectively target mutant BRAF
